Source: publication PMC3447753, “Relacin, a Novel Antibacterial Agent Targeting the Stringent Response” (PLoS Pathogens, 2012)

Target: T1, Rel/Spo (D. radiodurans) (Deinococcus radiodurans, UniProt Q9RTC7)
T1 construct: gene DR_1838; full length, His-tagged (anti-His detection), expressed in E. coli BL21 CodonPlus
T1 sequence (Q9RTC7 1-787): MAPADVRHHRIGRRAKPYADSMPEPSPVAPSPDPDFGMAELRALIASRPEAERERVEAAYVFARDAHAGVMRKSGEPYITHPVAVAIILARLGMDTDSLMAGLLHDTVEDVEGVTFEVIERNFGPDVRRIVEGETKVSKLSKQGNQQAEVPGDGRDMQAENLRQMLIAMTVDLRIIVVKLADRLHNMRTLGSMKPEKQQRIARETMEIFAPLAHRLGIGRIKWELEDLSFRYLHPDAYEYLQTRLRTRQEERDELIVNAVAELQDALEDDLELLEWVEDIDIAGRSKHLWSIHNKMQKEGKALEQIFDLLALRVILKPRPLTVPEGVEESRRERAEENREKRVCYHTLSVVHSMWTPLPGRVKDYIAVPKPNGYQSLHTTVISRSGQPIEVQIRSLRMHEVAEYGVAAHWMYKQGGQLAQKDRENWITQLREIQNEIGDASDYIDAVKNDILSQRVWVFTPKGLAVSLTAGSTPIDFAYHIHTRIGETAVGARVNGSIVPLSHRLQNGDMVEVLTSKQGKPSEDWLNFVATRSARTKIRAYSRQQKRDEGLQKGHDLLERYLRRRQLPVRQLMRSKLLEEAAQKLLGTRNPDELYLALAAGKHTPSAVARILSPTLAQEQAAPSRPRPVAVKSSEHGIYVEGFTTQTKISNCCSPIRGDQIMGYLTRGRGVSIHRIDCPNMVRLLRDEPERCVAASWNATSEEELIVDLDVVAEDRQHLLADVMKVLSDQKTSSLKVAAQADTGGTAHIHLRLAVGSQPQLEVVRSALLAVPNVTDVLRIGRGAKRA
Experiment: (p)ppGpp synthesis from alpha-32P-GTP, PEI-TLC autoradiography
Format: biochemical
Settings: 0.5 mM GTP, 4 mM ATP, 10 mM MgCl2, pH 7.4, isolated ribosomes; inhibitor concentration only in figure

% inhibition at highest Relacin concentration: ~ 80%
Structure (SMILES): CC(C)C(=O)Nc1nc2c(ncn2[C@H]2C[C@H](OC(=O)NCC(=O)NCC(=O)O)[C@@H](COC(=O)NCC(=O)NCC(=O)O)O2)c(=O)[nH]1 [Relacin]
